# Experimental data published in patent US12220411B1, “Application of PTGDS inhibitor in preparation of drug for treating cataracts” (THE EYE HOSPITAL OR WENZHOU MEDICAL UNIVERSITY, priority 2023, dated 2025).
# Legend:
# [1] = tested on: HLEC-B3 cell line; assay: CCK8 cell activity with AT-56 added; type: cell-based, human
# Method: AT-56 was added to the cell line.
# [2] = tested on: lens epithelial cells; assay: ROS fluorescence staining in H2O2 epithelial cell oxidation model; type: cell-based, human; conditions: 200 μM H2O2 and 10 µM AT-56 (FIG. 9)
# [3] = tested on: lens epithelial cells; assay: MDA content measurement (oxidative stress injury); type: cell-based, human
# Method: MDA is an important index of oxidative stress, and measurement on the content of the MDA reflects a degree of an oxidative stress injury. After addition of different concentrations of PTGDS (FIG. 10A) and PGD2 (FIG. 10B), values of MDA were measured.
# [4] = tested on: lens epithelial cells; assay: Apoptosis of lens epithelial cells cultured with H2O2; type: cell-based, human; conditions: 10 μM AT-56 added to 200 μM H2O2 (FIG. 11)
# Source text: If the lens epithelial cells suffer from the oxidative stress injury, excessive ROS may accumulate in the cells, which can cause apoptosis until generation of cataracts.
# [5] = tested on: rat lens; assay: In vitro oxidative opacity model for a rat lens (lens organ culture)
# [6] = tested on: lens epithelial cells; assay: ROS fluorescence staining after addition of PTGDS or PGD2; type: cell-based, human
molecule,measurement,setting,value
"C1=Cc2ccccc2C(=C2CCN(CCCCc3nn[nH]n3)CC2)c2ccccc21 [AT-56, 4-dibenzo[a,d]cyclohepten-5-ylidene-1-[4-(2H-tetrazol-5-yl)-butyl]-piperidine]",cell activity (CCK8),"[1]; 7 μM AT-56, versus DMSO",higher than that with the addition of DMSO
same,cell activity (CCK8),"[1]; 10 μM AT-56, versus DMSO",higher than that with the addition of DMSO
same,ROS production in H2O2 epithelial cell oxidation model,[2],inhibit lens epithelial cells from producing ROS
same,production of the MDA,[3]; AT-56 added to 200 μM H2O2 (FIG. 10C),effectively reduce production of the MDA
same,apoptosis of lens epithelial cells,[4],effectively reduce apoptosis
same,progression of the cataracts (lens opacity),[5]; 200 μM H2O2 + 7 or 10 μM AT-56 for 12 h (FIGS. 12A-D),alleviated progression of the cataracts
same,degree of the cataracts (lens opacity),"[5]; 200 μM H2O2 for 12 h, then 7 or 10 μM AT-56 for 24 h (FIGS. 12E-G)",effectively reduce the degree of the cataracts
"CCCCC[C@H](O)/C=C/[C@H]1C(=O)C[C@H](O)[C@@H]1C/C=C\CCCC(=O)O [PGD2, prostaglandin D2]",content of MDA,[3]; different concentrations of PGD2 (FIG. 10B),increased with the increase of the concentration
same,levels of ROS produced by the lens epithelial cells,"[6]; PGD2 0.1, 0.4, 0.7, 1.0 nM versus DMSO (FIG. 8)","increased, and were concentration-dependent"
"PTGDS: prostaglandin H2 (PGH2) D-isomerase protein added to lens epithelial cells at 100-1000 pg/mL (protein, UniProt P41222 23-190, looked up) Prostaglandin-H2 D-isomerase: APEAQVSVQPNFQQDKFLGRWFSAGLASNSSWLREKKAALSMCKSVVAPATDGGLNLTSTFLRKNQCETRTMLLQPAGSLGSYSYRSPHWGSTYSVSVVETDYDQYALLYSQGSKGPGEDFRMATLYSRTQTPRAELKEKFTAFCKAQGFTEDTIVFLPQTDKCMTEQ",content of MDA,[3]; different concentrations of PTGDS (FIG. 10A),increased with the increase of the concentration
same,levels of ROS produced by the lens epithelial cells,"[6]; PTGDS 100, 400, 700, 1000 pg/mL versus DMSO control (FIG. 7)","increased, and were concentration-dependent"
